In PMC6478823, “A suite of phenotypic assays to ensure pipeline diversity when prioritizing drug-like Cryptosporidium growth inhibitors” (Nature Communications, 2019):
Like-named read-outs stand apart in the source and are kept apart here.

How the values were obtained:
C. parvum [1] = assay: Egress, motility, reinvasion assay (PV ratio); conditions: compound at EC90; for Egress and Reinvasion Assay: Mean PV ratios (19.5h:6h), Average: average of replicates; for Egress and Reinvasion Assay: Mean PV ratios (19.5h:6h), Replicate 1a: single replicate 1; for Egress and Reinvasion Assay: Mean PV ratios (19.5h:6h), Replicate 2a: single replicate 2; for Egress and Reinvasion Assay: Mean PV ratios (19.5h:6h), Replicate 3a: single replicate 3; for Egress and Reinvasion Assay: Mean PV ratios (19.5h:6h), Replicate 4a: single replicate 4
Description: For quantification of parasitophorous vacuoles over time, HCT-8 cells were grown to greater than 90% confluence in 384-well plates and infected with 11,000 oocysts after triggering excystation.

[2] = system: C. parvum DMC1 expression; assay: Sexual differentiation assay (DMC1 expression); assay type: cell-based, Cryptosporidium parvum; conditions: compound at asexual EC90, 48-72 h; for Asexual to sexual differentiation: Mean % DMC1 inhibition (normalized to host nuclei), Average: average of replicates; for Asexual to sexual differentiation: Mean % DMC1 inhibition (normalized to host nuclei), Replicate 1a: single replicate 1; for Asexual to sexual differentiation: Mean % DMC1 inhibition (normalized to host nuclei), Replicate 2a: single replicate 2; for Asexual to sexual differentiation: Mean % DMC1 inhibition (normalized to host nuclei), Replicate 3a: single replicate 3
Summary of the method: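 Compounds applied at their previously determined asexual-assay EC90, and % inhibition of DMC1 expression reported. Readout: 4% paraformaldehyde fixation, immunostaining with mAb 1H10G7 plus fluorescein-lectin and Hoechst, tiled 20× imaging in 384-well format, ImageJ analysis counting lectin-positive then DMC1-positive parasites.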

C. parvum [3] = assay: 48 h Cryptosporidium growth inhibition assay; assay type: cell-based, Cryptosporidium parvum; conditions: read-out: Regular 3 to 48 h assay in vitro EC90, C. parvum in HCT-8 cells, compound added 3 h post-infection, read at 48 h
Summary of the method: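 EC50 and EC90 came from automated fluorescence imaging counts of parasitophorous vacuoles (Vicia villosa lectin stain), with Hoechst-stained host nuclei tracked alongside. The compound was present from 3 h to 48 h after infecting confluent HCT-8 cells with 5500 excysted C. parvum (Iowa) oocysts per well, at 37 °C.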

Structure (SMILES) | Egress and Reinvasion Assay: Mean PV ratios (19.5h:6h), Average (C. parvum [1]) | Egress and Reinvasion Assay: Mean PV ratios (19.5h:6h), Replicate 1a (C. parvum [1]) | Egress and Reinvasion Assay: Mean PV ratios (19.5h:6h), Replicate 2a (C. parvum [1]) | Asexual to sexual differentiation: Mean % DMC1 inhibition (normalized to host nuclei), Average [2] | Asexual to sexual differentiation: Mean % DMC1 inhibition (normalized to host nuclei), Replicate 1a [2] | Asexual to sexual differentiation: Mean % DMC1 inhibition (normalized to host nuclei), Replicate 2a [2] | EC90 (C. parvum [3]) | Egress and Reinvasion Assay: Mean PV ratios (19.5h:6h), Replicate 3a (C. parvum [1]) | Egress and Reinvasion Assay: Mean PV ratios (19.5h:6h), Replicate 4a (C. parvum [1]) | EC90 (C. parvum [3]; Cryptosporidium parvum) | Asexual to sexual differentiation: Mean % DMC1 inhibition (normalized to host nuclei), Replicate 3a [2]
CSc1ccccc1C(=O)Nc1nc(-c2ccccn2)cs1 [MMV001246] | 0.43 | 0.60 | 0.25 | 45.66% | 48.08% | 43.24% | 5.39 µM |  |  |  | 
CCOc1ccc(Cl)c2c1B(O)OC2CN (stereo not shown) [AN6426] | 0.93 | 1.07 | 1.05 | 62.47% | 60.83% | 64.12% | 19.5 µM | 0.86 | 0.75 |  | 
Cc1cn(-c2cc(NC(=O)c3ccc(C)c(Nc4nccc(-c5cccnc5)n4)c3)cc(C(F)(F)F)c2)cn1 [Nilotinib] | 1.05 | 1.50 | 1.54 | 70.96% | 66.12% | 75.79% |  | 0.60 | 0.54 | 16.5 µM | 
Oc1c(CN2CCN(c3ccccc3F)CC2)cc(Br)c2cccnc12 [A-6] | 0.79 | 0.65 | 0.93 | 17.22% | 31.05% | 3.39% | 1.33 µM |  |  |  | 
O=C(Nc1nc(-c2ccccn2)cs1)c1ccccc1Br [MMV665909] | 0.41 | 0.61 | 0.21 | 53.05% | 56.13% | 49.96% | 6.84 µM |  |  |  | 
c1ccc(CNc2nc(NC3CCCC3)nc3ccccc23)cc1 [B-5] | 1.49 | 1.74 | 1.24 | 7.84% | 11.99% | -2.17% | 7.22 µM |  |  |  | 13.72%
CN(C)c1ccc(C(=C2C=CC(=[N+](C)C)C=C2)c2ccc(N(C)C)cc2)cc1 [Gentian Violet] | 1.37 | 1.01 | 1.73 | 34.34% | 8.16% | 38.90% | 1.05 µM |  |  |  | 55.96%
